Laboratory results from patent EP1200099B1, “SYNERGISTIC COMPOSITION COMPRISING DAUNORUBICIN DERIVATIVES AND ANTI[…]” (Pharmacia Italia S.p.A., priority 1999, dated 2001).

Tested on: disseminated L1210 murine leukemia
Experiment: Antileukemic activity on disseminated L1210 murine leukemia (in vivo survival)
Parameters: species or system mouse CD2F1
Details: for toxicity (in words): single agents: gemcitabine 15 and 60 mg/kg ip day 1, PNU 159548 1 and 1.5 mg/kg iv day 1
Text: The superadditive actions of the combination preparation of the present invention may be shown for instance by in vivo tests for the antileukemic activity on disseminated L1210 murine leukemia. The combination of Ia with gemcitabine (Table 1) or 5-Fluorouracil tested at the different doses and schedules, produces favorable ILS% values (Increase in life span: [(median survival time of treated mice/median survival time of controls)x 100]-100), indicating a synergistic effect.
By combining gemcitabine and PNU 159548 at the same doses and with the same schedule, an increase of activity with ILS% values of 117 and 204 were observed, indicating a synergistic effect as shown by the combination index (CI) of […], respectively.
For these experiments Ia was solubilized in [Cremophor® /EtOH = 6.5:3.5]/[normal saline]=20/80 v/v, while standard pharmaceutical preparation were used for the antimetabolite compounds.

[1] = gemcitabine alone, ip day +1, 15 mg/kg/day
[2] = gemcitabine alone, ip day +1, 60 mg/kg/day
[3] = PNU 159548 alone, iv day +1, 1 mg/kg/day
[4] = PNU 159548 alone, iv day +1, 1.5 mg/kg/day

Compound | ILS% [1] [%] | LTS: long-term survivors (>60 days) at the end of the experiments [1] | TOX: Number of toxic deaths/number of mice [1] | ILS% [2] [%] | LTS: long-term survivors (>60 days) at the end of the experiments [2] | TOX: Number of toxic deaths/number of mice [2] | toxicity (in words) | LTS: long-term survivors (>60 days) at the end of the experiments [3] | TOX: Number of toxic deaths/number of mice [3] | ILS% (PNU 159548 alone, iv day +1, 1 mg/kg/day, L1210 cells 10^5/mouse IV on Day 0) [%] | ILS% [4] [%] | LTS: long-term survivors (>60 days) at the end of the experiments [4] | TOX: Number of toxic deaths/number of mice [4]
Nc1ccn([C@@H]2O[C@H](CO)[C@@H](O)C2(F)F)c(=O)n1 [Gemcitabine, gemcitabine] | 50 | 0/10 | 0/10 | 83 | 0/20 | 0/20 | without toxicity |  |  |  |  |  | 
CC(=O)[C@]1(O)Cc2c(O)c3c(c(O)c2[C@@H](O[C@H]2C[C@H](N4CC4)[C@H](OS(C)(=O)=O)[C@H](C)O2)C1)C(=O)c1ccccc1C3=O [PNU 159548, 4-demethoxy-3'-deamino-3'-aziridinyl-4'-methansulfonyl daunorubicin] |  |  |  |  |  |  | without toxicity | 0/10 | 0/10 | 33 | 67 | 0/20 | 0/20
